Test results reported in ChEMBL document CHEMBL1144455, “A small molecule-kinase interaction map for clinical kinase inhibitors” (Nat Biotechnol, 2005).
pKd: −log10 of the molar value.

What was measured:
[1] = molecular target: Serine/threonine-protein kinase PAK 1 (Homo sapiens, UniProt Q13153)
[2] = molecular target: Tyrosine-protein kinase Yes (Homo sapiens, UniProt P07947)
[3] = molecular target: Ribosomal protein S6 kinase alpha-5 (Homo sapiens, UniProt O75582)
[4] = molecular target: T1, Dual specificity protein kinase TTK (Homo sapiens, UniProt P33981)
T1 sequence (P33981 whole entry): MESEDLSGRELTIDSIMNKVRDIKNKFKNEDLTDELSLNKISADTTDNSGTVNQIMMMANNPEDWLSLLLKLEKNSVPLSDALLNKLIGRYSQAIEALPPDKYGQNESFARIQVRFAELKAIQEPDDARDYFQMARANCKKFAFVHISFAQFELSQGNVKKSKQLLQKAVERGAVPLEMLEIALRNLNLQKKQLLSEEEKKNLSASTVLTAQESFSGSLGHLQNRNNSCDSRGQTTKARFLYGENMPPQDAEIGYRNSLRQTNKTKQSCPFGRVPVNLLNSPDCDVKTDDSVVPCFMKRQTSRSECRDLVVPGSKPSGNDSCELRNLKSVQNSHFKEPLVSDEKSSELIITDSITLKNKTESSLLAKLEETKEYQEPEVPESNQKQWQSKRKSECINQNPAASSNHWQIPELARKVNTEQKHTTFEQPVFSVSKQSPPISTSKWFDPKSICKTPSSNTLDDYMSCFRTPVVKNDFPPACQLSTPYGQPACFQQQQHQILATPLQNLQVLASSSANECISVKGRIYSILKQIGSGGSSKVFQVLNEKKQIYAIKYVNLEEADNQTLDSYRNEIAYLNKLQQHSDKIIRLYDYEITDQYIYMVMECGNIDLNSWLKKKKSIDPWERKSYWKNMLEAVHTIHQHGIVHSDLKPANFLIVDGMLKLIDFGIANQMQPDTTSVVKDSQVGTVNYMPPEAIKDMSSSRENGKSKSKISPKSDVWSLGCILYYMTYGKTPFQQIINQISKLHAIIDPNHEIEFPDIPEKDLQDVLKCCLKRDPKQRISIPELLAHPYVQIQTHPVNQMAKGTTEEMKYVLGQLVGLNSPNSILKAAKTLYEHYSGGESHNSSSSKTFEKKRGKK

Tyrosine-protein kinase Yes, sequence (P07947 whole entry): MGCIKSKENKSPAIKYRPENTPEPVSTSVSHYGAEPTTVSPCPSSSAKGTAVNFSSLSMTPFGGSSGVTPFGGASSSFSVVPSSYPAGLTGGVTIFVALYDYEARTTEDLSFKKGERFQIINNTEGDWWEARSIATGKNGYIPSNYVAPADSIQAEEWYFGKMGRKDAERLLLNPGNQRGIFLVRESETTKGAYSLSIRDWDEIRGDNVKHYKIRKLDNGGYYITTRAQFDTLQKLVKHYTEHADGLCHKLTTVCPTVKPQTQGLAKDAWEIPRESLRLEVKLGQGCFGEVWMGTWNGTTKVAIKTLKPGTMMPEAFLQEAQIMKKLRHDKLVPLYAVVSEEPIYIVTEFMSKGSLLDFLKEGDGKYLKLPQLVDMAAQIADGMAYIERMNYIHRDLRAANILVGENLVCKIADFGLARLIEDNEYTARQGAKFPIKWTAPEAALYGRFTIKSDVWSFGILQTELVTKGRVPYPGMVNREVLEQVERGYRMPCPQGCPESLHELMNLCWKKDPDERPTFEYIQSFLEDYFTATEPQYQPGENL
Serine/threonine-protein kinase PAK 1, sequence (Q13153 whole entry): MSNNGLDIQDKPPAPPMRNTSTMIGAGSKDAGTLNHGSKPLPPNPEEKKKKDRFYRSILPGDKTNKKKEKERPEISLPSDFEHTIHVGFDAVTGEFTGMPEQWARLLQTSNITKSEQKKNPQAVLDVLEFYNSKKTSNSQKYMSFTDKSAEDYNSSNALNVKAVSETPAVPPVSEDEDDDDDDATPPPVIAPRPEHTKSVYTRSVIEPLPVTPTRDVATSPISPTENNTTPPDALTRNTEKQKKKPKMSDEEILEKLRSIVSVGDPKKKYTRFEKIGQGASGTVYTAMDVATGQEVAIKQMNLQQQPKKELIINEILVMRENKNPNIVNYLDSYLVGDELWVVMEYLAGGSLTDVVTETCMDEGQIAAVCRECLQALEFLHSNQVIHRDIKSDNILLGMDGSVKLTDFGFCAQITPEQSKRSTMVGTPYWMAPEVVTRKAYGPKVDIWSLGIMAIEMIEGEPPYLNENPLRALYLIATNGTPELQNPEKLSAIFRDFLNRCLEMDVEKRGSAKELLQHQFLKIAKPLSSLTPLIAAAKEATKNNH
Ribosomal protein S6 kinase alpha-5, sequence (O75582 whole entry): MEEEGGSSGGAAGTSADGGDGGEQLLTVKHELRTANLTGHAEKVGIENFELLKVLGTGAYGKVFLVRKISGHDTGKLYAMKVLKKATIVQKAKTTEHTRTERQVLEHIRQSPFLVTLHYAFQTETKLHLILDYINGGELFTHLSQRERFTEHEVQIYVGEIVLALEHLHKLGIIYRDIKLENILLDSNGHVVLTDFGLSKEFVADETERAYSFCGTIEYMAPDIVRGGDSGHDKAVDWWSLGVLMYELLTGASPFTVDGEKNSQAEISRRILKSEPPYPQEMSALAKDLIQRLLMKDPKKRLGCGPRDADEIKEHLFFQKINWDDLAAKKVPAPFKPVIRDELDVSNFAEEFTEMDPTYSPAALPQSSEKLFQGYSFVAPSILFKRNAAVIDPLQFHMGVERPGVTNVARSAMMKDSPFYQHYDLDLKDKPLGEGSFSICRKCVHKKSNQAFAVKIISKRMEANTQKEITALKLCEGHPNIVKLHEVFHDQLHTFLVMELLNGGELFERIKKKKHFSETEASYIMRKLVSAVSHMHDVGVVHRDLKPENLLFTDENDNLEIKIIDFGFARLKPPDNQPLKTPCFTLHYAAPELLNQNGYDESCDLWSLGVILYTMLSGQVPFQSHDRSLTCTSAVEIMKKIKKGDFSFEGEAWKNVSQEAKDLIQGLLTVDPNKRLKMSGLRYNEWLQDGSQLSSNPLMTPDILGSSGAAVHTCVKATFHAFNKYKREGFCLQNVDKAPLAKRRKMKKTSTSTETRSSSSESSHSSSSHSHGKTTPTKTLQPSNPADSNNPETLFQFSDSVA

Row | Structure (SMILES) | pKd [1] | pKd [2] | pKd [3] | pKd [4]
1 | CCOc1cc2ncc(C#N)c(Nc3ccc(F)c(Cl)c3)c2cc1NC(=O)/C=C/CN(C)C [PELITINIB] | 5.68 | 6.08 |  | 
2 | Oc1c2ccccc2c2c3c(cccc13)N=N2 [SP-600125] |  |  | 5.77 | 7.01
